Test results from patent publication US20140243292A1, “SUBSITUTED 2-(CHROMAN-6-YLOXYL)-THIAZOLES AND THEIR USE AS PHARMACEUTICALS” (Sanofi, priority 2011, published 2014).
Where a name gives a salt, the structure may show the parent alone.

target: T1, human NCX1 (Homo sapiens, UniProt P32418); test: NCX1 inhibition, reverse mode (Ca2+ influx into cells), FLIPR Fluo-4 assay; type: cell-based; conditions: NCX1 reverse mode; at 30 μM; read-out: Inhibition in % at 30 μM (NCX1rv; IC50 value not determined)
T1 construct: expressed in transfected cells
Outline: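 CHO cells stably expressing human NCX1 were loaded with 2 µM Fluo-4 AM for 80 min at room temperature, then preincubated with compound for 45 min at 16 °C in pH 7.4 HEPES buffer (3.5 mM CaCl2, 2.5 mM probenecid). Reverse-mode Ca2+ influx was triggered by 20 µM final gramicidin and read at 520 nm on FLIPR. IC50 came from % inhibition of max−min fluorescence.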

Row | SMILES | inhibition at 30 µM [%]
1 | O=C(O)CNC(=O)c1cnc(Oc2ccc3c(c2)CCC(c2cccnc2)O3)s1 (stereo not drawn) [compound 260] | 38
2 | CC(C)c1ccc(NC(=O)c2cnc(Oc3ccc4c(c3)CC[C@@H](c3ccccc3)O4)s2)cc1 [compound 280] | 38

same assay, conditions: inhibition of NCX1 in reverse mode (Ca2+ influx into cells); read-out: NCX1rv IC50

Row | SMILES | IC50 [nM]
3 | OCCN(CCO)Cc1cnc(Oc2ccc3c(c2)CC[C@@H](c2ccccc2)O3)s1 [compound 258] | 200
4 | O=C(c1cnc(Oc2ccc3c(c2)CCC(c2cccnc2)O3)s1)N1CCC[C@H]1CO (stereo partly drawn) [compound 259] | 1800
5 | CC[C@H](C)[C@H](NC(=O)c1cnc(Oc2ccc3c(c2)CCC(c2cccnc2)O3)s1)C(=O)OC (stereo partly drawn) [compound 261] | 3100
6 | CCOC(=O)[C@H](Cc1ccccc1)NC(=O)c1cnc(Oc2ccc3c(c2)CCC(c2cccnc2)O3)s1 (stereo partly drawn) [compound 262] | 800
7 | CCOC(=O)[C@@H](NC(=O)c1cnc(Oc2ccc3c(c2)CCC(c2cccnc2)O3)s1)C(C)C (stereo partly drawn) [compound 263] | 25200
8 | COC(=O)[C@@H](NC(=O)c1cnc(Oc2ccc3c(c2)CCC(c2cccnc2)O3)s1)C(C)(C)C (stereo partly drawn) [compound 264] | 3100
9 | NC1CC(NC(=O)c2cnc(Oc3ccc4c(c3)CCC(c3cccnc3)O4)s2)C1 (stereo not drawn) [compound 265, hydrochloride] | 7300
10 | OCCNCc1cnc(Oc2ccc3c(c2)CC[C@@H](c2ccccc2)O3)s1 [compound 266] | 100
11 | N[C@H]1C[C@@H]1NC(=O)c1cnc(Oc2ccc3c(c2)CCC(c2cccnc2)O3)s1 (stereo partly drawn) [compound 267, hydrochloride] | 600
12 | O=C(NC1C2CNCC21)c1cnc(Oc2ccc3c(c2)CCC(c2cccnc2)O3)s1 (stereo not drawn) [compound 268] | 2500
13 | CO[C@H]1CNC[C@@H]1NC(=O)c1cnc(Oc2ccc3c(c2)CCC(c2cccnc2)O3)s1 (stereo partly drawn) [compound 269, hydrochloride] | 2600
14 | CC[C@H](C)[C@H](NC(=O)c1cnc(Oc2ccc3c(c2)CCC(c2cccnc2)O3)s1)C(=O)O (stereo partly drawn) [compound 270] | 12500
15 | O=C(N[C@@H](Cc1ccccc1)C(=O)O)c1cnc(Oc2ccc3c(c2)CCC(c2cccnc2)O3)s1 (stereo partly drawn) [compound 271] | 12100
16 | CC(C)[C@H](NC(=O)c1cnc(Oc2ccc3c(c2)CCC(c2cccnc2)O3)s1)C(=O)O (stereo partly drawn) [compound 272] | 15600
17 | CC(C)(C)[C@H](NC(=O)c1cnc(Oc2ccc3c(c2)CCC(c2cccnc2)O3)s1)C(=O)O (stereo partly drawn) [compound 273] | 10100
18 | Cc1cc(CNC(=O)c2cnc(Oc3ccc4c(c3)CC[C@@H](c3ccccc3)O4)s2)ccn1 [compound 274, hydrochloride] | 400
19 | CCOC(=O)[C@H](C)NC(=O)c1cnc(Oc2ccc3c(c2)CCC(c2cccnc2)O3)s1 (stereo partly drawn) [compound 276] | 400
20 | O=C(NCc1ccno1)c1cnc(Oc2ccc3c(c2)CCC(c2ccc(Cl)nc2)O3)s1 (stereo not drawn) [compound 277, hydrochloride] | 2000
21 | O=C(NCc1ccnc(Cl)c1)c1cnc(Oc2ccc3c(c2)CCC(c2ccc(Cl)nc2)O3)s1 (stereo not drawn) [compound 278, hydrochloride] | 1300
22 | CCCNC(=O)c1cnc(Oc2ccc3c(c2)CC[C@@H](c2ccccc2)O3)s1 [compound 281] | 600
23 | CC1(C)CN(C(=O)c2cnc(Oc3ccc4c(c3)CC[C@@H](c3ccccc3)O4)s2)CCN1 [compound 282] | 1200
24 | O=C(c1cnc(Oc2ccc3c(c2)CC[C@@H](c2ccccc2)O3)s1)N1CC[C@H]2CNC[C@H]21 [compound 283, hydrochloride] | 600
25 | NC1C[C@@H]1NC(=O)c1cnc(Oc2ccc3c(c2)CC[C@@H](c2ccccc2)O3)s1 (stereo partly drawn) [compound 284, hydrochloride] | 200
26 | CN[C@H]1CN(C(=O)c2cnc(Oc3ccc4c(c3)CC[C@@H](c3ccccc3)O4)s2)CC[C@H]1C [compound 285, hydrochloride] | 900
27 | CN(C)CC1CN(C(=O)c2cnc(Oc3ccc4c(c3)CC[C@@H](c3ccccc3)O4)s2)CCO1 (stereo partly drawn) [compound 286] | 1500
28 | O=C(NCC1CCCCN1)c1cnc(Oc2ccc3c(c2)CC[C@@H](c2ccccc2)O3)s1 (stereo partly drawn) [compound 287] | 500

Row | SMILES | IC50 [nM]
29 | O=C(c1cnc(Oc2ccc3c(c2)CC[C@@H](c2ccccc2)O3)s1)N1CCCCC1 [compound 288] | 400
30 | O=C(c1cnc(Oc2ccc3c(c2)CC[C@@H](c2ccccc2)O3)s1)N1CCC2(CCCNC2)C1 (stereo partly drawn) [compound 290] | 600
31 | NCC1CCCN1C(=O)c1cnc(Oc2ccc3c(c2)CC[C@@H](c2ccccc2)O3)s1 (stereo partly drawn) [compound 291] | 400
32 | NC1CCN(C(=O)c2cnc(Oc3ccc4c(c3)CC[C@@H](c3ccccc3)O4)s2)C1 (stereo partly drawn) [compound 292] | 300
33 | NC[C@@H]1[C@H]2CC[C@H](C2)[C@H]1NC(=O)c1cnc(Oc2ccc3c(c2)CC[C@@H](c2ccccc2)O3)s1 [compound 293] | 1000
34 | COC(=O)CNC(=O)c1cnc(Oc2ccc3c(c2)CCC(c2ccccc2)O3)s1 (stereo not drawn) [compound 294] | 200
35 | O=C(NCCO)c1cnc(Oc2ccc3c(c2)CCC(c2ccccc2)O3)s1 (stereo not drawn) [compound 295] | 400
36 | Cc1noc(C)c1CCC(=O)NCc1cnc(Oc2ccc3c(c2)CC[C@@H](c2ccccc2)O3)s1 [compound 296] | 400
37 | Cc1nn(C)c(C)c1CCC(=O)NCc1cnc(Oc2ccc3c(c2)CC[C@@H](c2ccccc2)O3)s1 [compound 297] | 1100
38 | O=C(c1cnc(Oc2ccc3c(c2)CCC(c2ccccc2)O3)s1)N1CC[C@@H](O)C1 (stereo partly drawn) [compound 298] | 600
39 | Cc1ccccc1C1CCc2cc(Oc3ncc(C(=O)N4CC[C@@H](O)C4)s3)ccc2O1 (stereo partly drawn) [compound 300] | 200
40 | CS(=O)(=O)c1ccc(C2CCc3cc(Oc4ncc(C(=O)NCc5ccno5)s4)ccc3O2)cc1 (stereo not drawn) [compound 301] | 6900
41 | NCC(=O)NCc1cnc(Oc2ccc3c(c2)CC[C@@H](c2ccccc2)O3)s1 [compound 302] | 400
42 | C[C@H](N)C(=O)NCc1cnc(Oc2ccc3c(c2)CC[C@@H](c2ccccc2)O3)s1 [compound 303] | 300
43 | N[C@@H](Cc1ccccc1)C(=O)NCc1cnc(Oc2ccc3c(c2)CC[C@@H](c2ccccc2)O3)s1 [compound 304] | 1900
44 | O=C(NCC(O)CO)c1cnc(Oc2ccc3c(c2)CCC(c2ccccc2)O3)s1 (stereo not drawn) [compound 305] | 300
45 | CC(C)(C)OC(=O)CNC(=O)c1cnc(Oc2ccc3c(c2)CCC(c2ccccc2)O3)s1 (stereo not drawn) [compound 306] | 500
46 | CC(C)OC(=O)CNC(=O)c1cnc(Oc2ccc3c(c2)CCC(c2ccccc2)O3)s1 (stereo not drawn) [compound 307] | 200
47 | CCOC(=O)CNC(=O)c1cnc(Oc2ccc3c(c2)CCC(c2ccccc2)O3)s1 (stereo not drawn) [compound 308] | 200
48 | O=C(NCc1ccno1)c1cnc(Oc2ccc3c(c2)CCC(c2cnccn2)O3)s1 (stereo not drawn) [compound 309] | 4700
49 | O=C(NCc1ccnc(Cl)c1)c1cnc(Oc2ccc3c(c2)CCC(c2cnccn2)O3)s1 (stereo not drawn) [compound 310] | 2600
50 | OCCNCc1cnc(Oc2ccc3c(c2)CCC(c2ccccc2)O3)s1 (stereo not drawn) [compound 311] | 100
51 | O=C(c1cnc(Oc2ccc3c(c2)CCC(c2ccccc2)O3)s1)N(CCO)CCO (stereo not drawn) [compound 312] | 100
52 | CN1CCN(C(=O)c2cnc(Oc3ccc4c(c3)CCC(c3ccccc3)O4)s2)CC1 (stereo not drawn) [compound 313] | 400
53 | O=C(c1cnc(Oc2ccc3c(c2)CCC(c2ccccc2)O3)s1)N1CCOCC1 (stereo not drawn) [compound 314] | 100
54 | O=C(c1cnc(Oc2ccc3c(c2)CCC(c2ccccc2)O3)s1)N1CCCCC1 (stereo not drawn) [compound 316] | 500
